The values that follow come from PMC6013791 (Chemical Science, 2016).

Where a SMILES comes first, the peptide text is derived from it. Bridges are numbered along the chain shown (N, C = ends). [ ]: non-standard residue; d: D form. hArg = N=C(N)NCCCC[C@H](N)C(=O)O; Mpa = O=C(O)CCS

For assay [1], the target named is T1, CXCR4 (Homo sapiens, UniProt P61073). The assay is described as follows: Ligand efficiency from ChEMBL19 CXCR4 ligand data. The conditions noted are these: LE = 1.4pAffinity/nheavy_atoms, from ChEMBL19 CXCR4 data ref 28.
T1 sequence (P61073 whole entry): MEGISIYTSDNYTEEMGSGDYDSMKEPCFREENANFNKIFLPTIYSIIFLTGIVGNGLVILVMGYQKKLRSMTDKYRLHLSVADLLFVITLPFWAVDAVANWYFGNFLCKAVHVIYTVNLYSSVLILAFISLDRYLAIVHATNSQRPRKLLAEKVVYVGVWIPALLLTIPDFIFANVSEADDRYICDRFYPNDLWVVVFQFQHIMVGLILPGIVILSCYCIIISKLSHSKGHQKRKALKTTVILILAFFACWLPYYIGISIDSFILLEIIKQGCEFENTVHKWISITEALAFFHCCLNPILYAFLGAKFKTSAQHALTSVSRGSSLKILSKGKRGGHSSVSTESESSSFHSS
Assay [2] deals with T1, CXCR4. The conditions noted are these: cited from earlier work.
For assay [3], the target named is T1, CXCR4. Kind of assay: CXCR4 arrestin assay. The conditions noted are these: 30 μM, exploitive and hit expansion iterations. It is filed as cell-based.

With `c1cc2nc(c1)CCNCCN(Cc1ccc(CN3CCNCCc4cccc(n4)CCNCC3)cc1)CCNCC2` [CHEMBL1202231], on CXCR4 [1], the “ligand efficiency (LE)” value is given as 0.32.
For the compound `c1ccc(NCc2ccc(CNc3ccccn3)cc2)nc1` [ChEMBL237830], on CXCR4 [1], the “ligand efficiency (LE)” value is recorded as 0.56.
As to `C[C@H](NC(=O)[C@H](CCCN=C(N)N)NC(=O)c1ccc(CNCc2ccccn2)cc1)c1cccc2ccccc12` [KRH-1636], the EC50 at CXCR4 [2] is 18 nM.
Regarding `N=C(N)NCCCC[C@@H]1NC(=O)CCSSC[C@@H](C(N)=O)NC(=O)[C@@H]2CCCN2C(=O)[C@H](Cc2c[nH]c3ccccc23)NC(=O)[C@H](CC(=O)O)NC(=O)CNC1=O` [integrilin] ([Mpa][hArg]GDWPC-NH2; disulfide 1-7 (inferred)), the “activity in the arrestin assay” value at CXCR4 [3] is reported as “lack of activity”.
